This assay concerns the target recombinant integrase (HIV integrase) (Human immunodeficiency virus type 1 group M subtype B, UniProt P04585). The assay can be described thus: HIV integrase assay: strand transfer catalyzed by recombinant integrase. The assay is classed as biochemical. Conditions: strand transfer activity. On the procedure:
HIV Integrase Assay: Strand Transfer Catalyzed by Recombinant Integrase and Preintegration Complexes
Assays for the strand transfer activity of integrase can be conducted according to Wolfe et al., J. Virol. 1996, 70: 1424 and Farnet and Bushman, Cell 1997, 88: 483 for recombinant integrase and preintegration complexes, respectively, hereby incorporated by reference. Compound A was tested in the recombinant integrase assay and found to have an IC50 of about 20 micromolar.

pIC50: −log10 of the molar value.

In general, pIC50 refers to the negative decadic logarithm of the IC50, by convention in mol/L. With `CCCCC(C)C1=C(O)C(=O)C2CC(C)CC(C(=O)O)C2C1(C)C(=O)CCO` (stereo not shown) [Compound A], the pIC50 is about 4.70.

The record behind these values is US6541515B2, “HIV integrase inhibitors” (Merck & Co., Inc., priority 2000, dated 2003).
